Active and inactive are the calls of the source. The rule behind the calls is not given here.
How the values were obtained:
[1] = Cytotoxicity against human SNU-C4 HiBiT-PXR KI cell assessed as cell viability at 30 uM incubated for 24 hrs by celltiter-glo luminescent assay relative to control; format: functional; settings: read-out: Activity
[2] = Cytotoxicity against human SNU-C4 HiBiT-PXR KI cell assessed as cell viability incubated for 24 hrs by celltiter-glo luminescent assay; format: functional
[3] = Cytotoxicity against human SNU-C4 HiBiT-PXR KI cell assessed as cell viability incubated for 72 hrs by celltiter-glo luminescent assay; format: functional
[4] = Cytotoxicity against human SNU-C4 HiBiT-PXR KI cell assessed as cell viability at 30 uM incubated for 72 hrs by celltiter-glo luminescent assay relative to control; format: functional; settings: read-out: Activity
[5] = molecular target: T1, von Hippel-Lindau disease tumor suppressor/Nuclear receptor subfamily 1 group I member 2 (Homo sapiens, UniProt O75469+P40337); test: PROTAC activity at N-terminal PXR/VHL in human SNU-C4 HiBiT-PXR KI cell assessed as PXR degradation upto 10 uM incubated at 24 hrs by Western blot analysis; format: cell-based
[6] = molecular target: T1, von Hippel-Lindau disease tumor suppressor/Nuclear receptor subfamily 1 group I member 2; test: PROTAC activity at […] PXR/VHL in human SNU-C4 HiBiT-PXR KI cell assessed as PXR degradation incubated at 24 hrs by Western blot analysis; format: cell-based
[7] = molecular target: T1, von Hippel-Lindau disease tumor suppressor/Nuclear receptor subfamily 1 group I member 2; test: PROTAC activity at PXR/VHL in human SNU-C4 HiBiT-PXR KI cell assessed as PXR degradation at 1 uM incubated for 8 hrs in presence of methyl (S)-3-(1-(2,5-dimethoxyphenyl)-5-methyl-1H-1,2,3-triazole-4-carboxamido)-4-(hexan-3-yloxy)benzoate by Western blot analysis; format: cell-based
[8] = molecular target: T1, von Hippel-Lindau disease tumor suppressor/Nuclear receptor subfamily 1 group I member 2; test: PROTAC activity at PXR/VHL in human SNU-C4 HiBiT-PXR KI cell assessed as PXR degradation at 1 uM incubated for 8 hrs in presence of VH032 by Western blot analysis; format: cell-based
[9] = molecular target: T1, von Hippel-Lindau disease tumor suppressor/Nuclear receptor subfamily 1 group I member 2; test: PROTAC activity at PXR/VHL in human SNU-C4 HiBiT-PXR KI cell assessed as PXR degradation at 1 uM incubated for 8 hrs in presence of MG132 by Western blot analysis; format: cell-based
[10] = molecular target: T1, von Hippel-Lindau disease tumor suppressor/Nuclear receptor subfamily 1 group I member 2; test: PROTAC activity at PXR/VHL in human SNU-C4 HiBiT-PXR KI cell assessed as PXR degradation at 1 uM incubated for 8 hrs in presence of MLN4924 by Western blot analysis; format: cell-based
[11] = molecular target: von Hippel-Lindau disease tumor suppressor/Nuclear receptor subfamily 1 group I member 3 (Homo sapiens, UniProt Q14994+P40337); test: PROTAC activity at CAR/VHL in HEK293T cells assessed as CAR degradation at 0.001 to 100 uM incubated for 24 hrs; format: cell-based; settings: dose 0.001-100 µM
[12] = molecular target: von Hippel-Lindau disease tumor suppressor/Vitamin D3 receptor (Homo sapiens) (UniProt P11473+P40337); test: PROTAC activity at VDR/VHL in HEK293T cells assessed as VDR degradation at 0.001 to 100 uM incubated for 24 hrs; format: cell-based; settings: dose 0.001-100 µM
[13] = molecular target: von Hippel-Lindau disease tumor suppressor/Bile acid receptor (Homo sapiens) (UniProt Q96RI1+P40337); test: PROTAC activity at FXR/VHL in HEK293T cells assessed as FXR degradation at 0.001 to 100 uM incubated for 24 hrs; format: cell-based; settings: dose 0.001-100 µM
[14] = molecular target: von Hippel-Lindau disease tumor suppressor/Oxysterols receptor LXR-alpha (Homo sapiens) (UniProt Q13133+P40337); test: PROTAC activity at LXRalpha/VHL in HEK293T cells assessed as LXRalpha degradation at 0.001 to 100 uM incubated for 24 hrs; format: cell-based; settings: dose 0.001-100 µM
[15] = molecular target: von Hippel-Lindau disease tumor suppressor/Oxysterols receptor LXR-beta (Homo sapiens) (UniProt P55055+P40337); test: PROTAC activity at LXRbeta/VHL in HEK293T cells assessed as LXRbeta degradation at 0.001 to 100 uM incubated for 24 hrs; format: cell-based; settings: dose 0.001-100 µM
[16] = molecular target: T2, Nuclear receptor subfamily 1 group I member 2 (Homo sapiens, UniProt O75469); test: Inhibition of PXR activation in human HepG2 cells transfected with CYP3A4 incubated for 24 hrs in presence of rifampicin; format: cell-based; settings: hepg2, 24 h
T2 sequence (O75469 whole entry): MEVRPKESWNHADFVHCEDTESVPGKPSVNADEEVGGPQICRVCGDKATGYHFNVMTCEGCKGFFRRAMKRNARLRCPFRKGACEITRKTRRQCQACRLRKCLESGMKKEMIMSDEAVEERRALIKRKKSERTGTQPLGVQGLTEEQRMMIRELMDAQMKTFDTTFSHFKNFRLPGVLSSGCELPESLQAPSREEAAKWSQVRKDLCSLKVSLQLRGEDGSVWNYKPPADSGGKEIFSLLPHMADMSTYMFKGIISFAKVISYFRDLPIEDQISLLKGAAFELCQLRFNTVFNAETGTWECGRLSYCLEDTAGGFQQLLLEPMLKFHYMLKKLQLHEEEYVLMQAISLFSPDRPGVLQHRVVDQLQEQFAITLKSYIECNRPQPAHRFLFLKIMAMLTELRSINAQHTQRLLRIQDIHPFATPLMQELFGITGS

[17] = molecular target: T2, Nuclear receptor subfamily 1 group I member 2; test: Inhibition of PXR activation in human HepG2 cells transfected with CYP3A4 incubated for 24 hrs in presence of T0901317; format: cell-based; settings: hepg2, 24 h
[18] = molecular target: T2, Nuclear receptor subfamily 1 group I member 2; test: Inhibition of PXR activation in human HepG2 cells transfected with CYP3A4 incubated for 24 hrs in presence of paclitaxel; format: cell-based; settings: hepg2, 24 h
HepG2 = test: Reduction in basal PXR activity on CYP3A4 promoter in human HepG2 cells at 10 uM in absence of PXR agonist; format: functional, cell-based
[19] = molecular target: T2, Nuclear receptor subfamily 1 group I member 2; test: Inhibition of PXR activation in human SNU-C4 cells transfected with CYP3A4 at 10 uM incubated for 24 hrs in presence of paclitaxel; format: cell-based; settings: snu-c4, 24 h
SNU-C4 [20] = test: Effect on PXR mRNA level in human SNU-C4 cells at 10 uM incubated for 24 hrs in presence of paclitaxel by RT-qPCR analysis; format: functional, cell-based
SNU-C4 [21] = test: Cytotoxicity against human SNU-C4 cells assessed as cell viability incubated for 72 hrs in presence of paclitaxel; format: functional
[22] = molecular target: T1, von Hippel-Lindau disease tumor suppressor/Nuclear receptor subfamily 1 group I member 2; test: PROTAC activity at PXR/VHL in human SNU-C4 HiBiT-PXR KI cell assessed as inhibition of LBD-VCB complex formation at 41.2 nM incubated for 24 hrs by TR-FRET assay; format: cell-based; settings: 0.0412 µM
[23] = molecular target: T1, von Hippel-Lindau disease tumor suppressor/Nuclear receptor subfamily 1 group I member 2; test: PROTAC activity at N-terminal PXR/VHL in human SNU-C4 HiBiT-PXR KI cell assessed as reduction in PXR protein level incubated for 24 hrs by Western blot analysis; format: cell-based
[24] = molecular target: T2, Nuclear receptor subfamily 1 group I member 2; test: Displacement of BODIPY FL-probe from GST-tagged PXR LBD (unknown origin) incubated for 90 mins by TR-FRET assay

T1 sequence (P40337 whole entry, one chain of several): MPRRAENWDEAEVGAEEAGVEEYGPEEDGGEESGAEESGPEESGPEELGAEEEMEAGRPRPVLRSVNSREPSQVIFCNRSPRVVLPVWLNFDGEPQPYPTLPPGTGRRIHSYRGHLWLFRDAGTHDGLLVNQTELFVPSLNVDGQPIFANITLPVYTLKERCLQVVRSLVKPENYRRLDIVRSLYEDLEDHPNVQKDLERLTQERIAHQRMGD
von Hippel-Lindau disease tumor suppressor/Vitamin D3 receptor (Homo sapiens), sequence (P11473 whole entry, looked up): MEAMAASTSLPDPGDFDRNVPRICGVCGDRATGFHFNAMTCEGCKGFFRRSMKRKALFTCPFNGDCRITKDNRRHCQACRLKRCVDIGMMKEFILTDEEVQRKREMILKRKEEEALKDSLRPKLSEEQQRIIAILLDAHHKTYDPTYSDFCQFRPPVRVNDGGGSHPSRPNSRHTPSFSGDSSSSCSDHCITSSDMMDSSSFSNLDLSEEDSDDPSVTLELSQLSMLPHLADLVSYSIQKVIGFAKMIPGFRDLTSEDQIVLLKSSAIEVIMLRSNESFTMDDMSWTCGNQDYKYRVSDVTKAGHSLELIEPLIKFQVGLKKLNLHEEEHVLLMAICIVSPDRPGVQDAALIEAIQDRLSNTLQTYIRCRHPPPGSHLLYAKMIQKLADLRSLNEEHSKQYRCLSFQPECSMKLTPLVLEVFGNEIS
von Hippel-Lindau disease tumor suppressor/Vitamin D3 receptor (Homo sapiens), sequence (P40337 whole entry, looked up): as the sequence (P40337 whole entry, one chain of several) above
von Hippel-Lindau disease tumor suppressor/Bile acid receptor (Homo sapiens), sequence (P40337 whole entry, looked up): as the sequence (P40337 whole entry, one chain of several) above
von Hippel-Lindau disease tumor suppressor/Bile acid receptor (Homo sapiens), sequence (Q96RI1 whole entry, looked up): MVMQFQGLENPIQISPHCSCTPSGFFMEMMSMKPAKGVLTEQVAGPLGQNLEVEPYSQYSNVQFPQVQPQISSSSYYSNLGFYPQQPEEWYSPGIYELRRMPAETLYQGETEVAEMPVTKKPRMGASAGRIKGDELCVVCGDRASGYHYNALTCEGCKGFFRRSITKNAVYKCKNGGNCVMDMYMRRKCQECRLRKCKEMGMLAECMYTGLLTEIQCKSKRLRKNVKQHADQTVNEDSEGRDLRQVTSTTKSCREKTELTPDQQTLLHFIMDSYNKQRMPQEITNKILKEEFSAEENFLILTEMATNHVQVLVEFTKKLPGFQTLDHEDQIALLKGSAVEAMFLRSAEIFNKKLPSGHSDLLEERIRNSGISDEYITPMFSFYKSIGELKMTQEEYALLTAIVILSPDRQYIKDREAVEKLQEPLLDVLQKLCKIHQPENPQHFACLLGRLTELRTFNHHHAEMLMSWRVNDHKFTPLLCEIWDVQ
von Hippel-Lindau disease tumor suppressor/Oxysterols receptor LXR-alpha (Homo sapiens), sequence (P40337 whole entry, looked up): as the sequence (P40337 whole entry, one chain of several) above
von Hippel-Lindau disease tumor suppressor/Oxysterols receptor LXR-alpha (Homo sapiens), sequence (Q13133 whole entry, looked up): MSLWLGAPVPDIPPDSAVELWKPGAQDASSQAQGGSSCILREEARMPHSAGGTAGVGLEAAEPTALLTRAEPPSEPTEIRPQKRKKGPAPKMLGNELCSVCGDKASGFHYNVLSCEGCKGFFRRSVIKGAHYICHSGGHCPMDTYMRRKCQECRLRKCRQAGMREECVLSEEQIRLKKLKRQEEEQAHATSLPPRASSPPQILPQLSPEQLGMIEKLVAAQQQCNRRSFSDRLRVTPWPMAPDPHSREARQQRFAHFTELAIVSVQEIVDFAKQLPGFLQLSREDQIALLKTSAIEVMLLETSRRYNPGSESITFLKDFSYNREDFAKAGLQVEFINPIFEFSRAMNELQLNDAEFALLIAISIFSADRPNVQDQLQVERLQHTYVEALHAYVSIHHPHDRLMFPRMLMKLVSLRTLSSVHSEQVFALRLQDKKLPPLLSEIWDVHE
von Hippel-Lindau disease tumor suppressor/Oxysterols receptor LXR-beta (Homo sapiens), sequence (P40337 whole entry, looked up): as the sequence (P40337 whole entry, one chain of several) above
von Hippel-Lindau disease tumor suppressor/Oxysterols receptor LXR-beta (Homo sapiens), sequence (P55055 whole entry, looked up): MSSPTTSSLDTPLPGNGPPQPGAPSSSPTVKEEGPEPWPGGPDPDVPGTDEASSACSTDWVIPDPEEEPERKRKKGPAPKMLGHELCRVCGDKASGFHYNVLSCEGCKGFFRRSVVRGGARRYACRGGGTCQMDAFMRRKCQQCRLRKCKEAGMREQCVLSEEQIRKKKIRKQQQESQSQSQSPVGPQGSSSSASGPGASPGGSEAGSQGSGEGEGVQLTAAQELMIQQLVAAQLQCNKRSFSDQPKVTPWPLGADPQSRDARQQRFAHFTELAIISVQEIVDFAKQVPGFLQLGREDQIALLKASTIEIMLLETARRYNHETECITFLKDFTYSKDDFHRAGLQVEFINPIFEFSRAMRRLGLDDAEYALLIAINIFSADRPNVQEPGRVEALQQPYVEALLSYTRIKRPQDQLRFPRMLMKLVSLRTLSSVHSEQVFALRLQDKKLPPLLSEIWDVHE
von Hippel-Lindau disease tumor suppressor/Nuclear receptor subfamily 1 group I member 3, sequence (Q14994 whole entry): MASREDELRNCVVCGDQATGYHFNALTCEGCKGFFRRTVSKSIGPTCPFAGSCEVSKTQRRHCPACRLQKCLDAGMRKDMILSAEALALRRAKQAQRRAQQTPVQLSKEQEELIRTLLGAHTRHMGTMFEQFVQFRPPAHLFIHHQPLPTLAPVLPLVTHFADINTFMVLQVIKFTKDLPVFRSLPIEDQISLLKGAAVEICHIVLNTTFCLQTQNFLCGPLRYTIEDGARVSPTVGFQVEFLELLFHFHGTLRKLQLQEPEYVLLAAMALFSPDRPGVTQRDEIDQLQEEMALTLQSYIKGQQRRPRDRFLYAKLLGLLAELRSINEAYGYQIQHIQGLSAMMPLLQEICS
von Hippel-Lindau disease tumor suppressor/Nuclear receptor subfamily 1 group I member 3, sequence (P40337 whole entry): as the sequence (P40337 whole entry, one chain of several) above

Activity [5] | Activity [7] | Activity [8] | Activity [9] | Activity [10] | Activity [11] | Activity [12] | Activity [13] | Activity [14] | Activity [15] | Compound | viability at 30 µM [1] [%] | CC50 [2] [µM] | CC50 [3] [µM] | viability at 30 µM [4] [%] | also measured
Active | Not Active | Not Active | Not Active | Not Active | Not Active | inactive | inactive | inactive | inactive | CCC[C@H](CC)Oc1ccc(C(C)(C)C)cc1NC(=O)c1nnn(-c2cc(OC)c(OCCCCCCOCCOCC(=O)N[C@H](C(=O)N3C[C@H](O)C[C@H]3C(=O)NCc3ccc(-c4scnc4C)cc3)C(C)(C)C)cc2OC)c1C | 97.4 | > 30 | > 30 | 99.5 | DC50 [6]: 0.0531 µM
Active | Not Active | Not Active | Not Active | Not Active | Not Active | inactive | inactive | inactive | inactive | CCC[C@H](CC)Oc1ccc(C(=O)OC)cc1NC(=O)c1nnn(-c2cc(OC)c(OCCCCCCOCCOCC(=O)N[C@H](C(=O)N3C[C@H](O)C[C@H]3C(=O)NCc3ccc(-c4scnc4C)cc3)C(C)(C)C)cc2OC)c1C | 102 | > 30 | > 30 | 105 | inhibition (INH) [16]: Active; inhibition (INH) [17]: Active; inhibition (INH) [18]: Active; Activity (HepG2): Active; inhibition (INH) [19]: Active; Activity (SNU-C4 [20]): inactive; CC50 (SNU-C4 [21]): 9.53 µM
 |  |  |  |  |  |  |  |  |  | CC(=O)N[C@H](C(=O)N1C[C@@H](O)C[C@H]1C(=O)NCc1ccc(-c2scnc2C)cc1)C(C)(C)C |  |  |  |  | Activity [22]: Not Active
 |  |  |  |  |  |  |  |  |  | CCC[C@H](CC)Oc1ccc(C(=O)OC)cc1NC(=O)c1nnn(-c2cc(OC)ccc2OC)c1C | 95.6 | > 30 | > 30 | 94.9 | DC50 [23]: > 30 µM; Activity [24]: Active

Source: ChEMBL document CHEMBL6127111, “First-in-Class Small Molecule Degrader of Pregnane X Receptor Enhances Chemotherapy Efficacy” (J Med Chem, 2024)
